In ChEMBL document CHEMBL1201862, “PubChem BioAssay data set” (2004) one finds AC50 and IC50 data, which are given here for nine compounds.

Experiment [1] in a line: toxicity toward immortalized ovarian surface epithelium – cell-based, plate reader, dry powder samples, cytotoxicity control for PAX8 inhibitor project, dose response (AID 743045). It is filed as functional.
The nature of experiment [2]: A2780 cell killing – plate reader, dry powder samples, cytotoxicity control, dose response (AID 743046). It is filed as functional, cell-based.
The nature of experiment [3]: OVCAR-3 cell viability loss – plate reader, dry powder samples, PAX8 inhibitor project, dose response (AID 743044). It is filed as functional, cell-based.
Experiment [4] is described as follows: OVCAR8 cell viability loss – plate reader, dry powder samples, PAX8 project, dose response (AID 743197). It is filed as functional, cell-based. Particulars: OVCAR-8.
Experiment [5] in a line: cytotoxicity in MITF-independent A375 cells – cell-based, CellTiter-Glo luminescence, dry powder, set 4, counter-screen for MITF inhibitor project, dose response (AID 624364).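 Note: A375 melanoma cells are MITF independent so this is a counter screen.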 It is filed as functional. The following applies: A-375.
The nature of experiment [6]: viability loss in MITF-independent A375 cells – cell-based, CellTiter-Glo luminescence, dry powder, set 2, counter-screen for MITF inhibitor project, dose response (AID 624489).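 Note: actives are compounds lowering A375 viability meaning general cytotoxicity.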 It is filed as functional. The following applies: A-375. On the technique in general: In ATP-based viability assays light output follows the ATP content of the culture.
A short description of experiment [7]: Late stage assay provider results from the probe development effort to identify inhibitors of the Plasmodium falciparum M18 Aspartyl Aminopeptidase (M18AAP): radiolabel-based cell-based dose response assay to identify compounds that inhibit P. falciparum growth in RBCs, Set 2.. It is filed as functional.
For experiment [8], the target named is E3 ubiquitin-protein ligase UHRF1 (Homo sapiens, UniProt Q96T88). Briefly: Counterscreen for inhibitors of 5-meCpG-binding domain protein 2 (MBD2): TRFRET-based biochemical high throughput dose response assay to identify inhibitors of binding of ubiquitin-like with PHD and ring finger domains 1 (UHRF1) to methylated oligonucleotide. In general terms: The purpose of a counterscreen is to sort out artefacts and off-target activity.

Experiment [9] deals with T1, Rac GTPase-activating protein 1 (Homo sapiens, UniProt Q9H0H5).
T1 sequence (Q9H0H5 whole entry): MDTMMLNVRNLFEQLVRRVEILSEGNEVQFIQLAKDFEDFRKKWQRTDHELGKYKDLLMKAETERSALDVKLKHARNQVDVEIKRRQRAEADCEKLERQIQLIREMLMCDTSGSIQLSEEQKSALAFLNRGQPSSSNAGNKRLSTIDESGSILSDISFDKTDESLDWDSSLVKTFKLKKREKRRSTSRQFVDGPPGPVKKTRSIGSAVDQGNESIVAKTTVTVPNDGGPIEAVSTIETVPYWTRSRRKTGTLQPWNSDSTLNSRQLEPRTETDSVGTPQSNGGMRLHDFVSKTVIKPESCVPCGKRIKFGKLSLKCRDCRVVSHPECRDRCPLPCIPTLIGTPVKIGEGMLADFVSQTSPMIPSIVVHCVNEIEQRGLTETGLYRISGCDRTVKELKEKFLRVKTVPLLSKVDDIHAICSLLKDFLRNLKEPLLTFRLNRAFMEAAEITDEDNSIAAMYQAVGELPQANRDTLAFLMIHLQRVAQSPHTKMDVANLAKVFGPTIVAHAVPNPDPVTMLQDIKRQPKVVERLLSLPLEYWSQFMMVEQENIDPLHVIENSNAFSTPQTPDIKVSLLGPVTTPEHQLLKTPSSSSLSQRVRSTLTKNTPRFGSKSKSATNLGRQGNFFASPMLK
Briefly: blockers of MgcRacGAP-driven Rac1 GTP hydrolysis – biochemical, ADP Hunter fluorescence, primary and confirmatory, confirmation (AID 624330). It is filed as functional.

Experiment [10] concerns the target T2, Fibrinogen beta chain (Homo sapiens, UniProt P02675). The experiment is described as follows: Fluorescence polarization-based biochemical high throughput dose response assay to identify inhibitors that disrupt the binding of a cyclic peptide (Tn6) to the fibrin proteolytic product D-Dimer and fragment E complex [DD(E )]. On the technique in general: In fluorescence polarisation assays a small probe gives low polarisation when free and higher when bound to something large.

Experiment [11] concerns the target T2, Fibrinogen beta chain. The experiment is described as follows: Fluorescence polarization-based biochemical high throughput dose response assay to identify inhibitors that disrupt the binding of a cyclic peptide (Tn7) to the fibrin proteolytic product D-Dimer and fragment E complex [DD(E )].
The nature of experiment [12]: viability loss in HEK293T cells – cell-based, ATP luminescence, dry powder, set 3, cytotoxicity control, dose response (AID 743131). Particulars: HEK293. It is filed as functional.
The nature of experiment [13]: viability loss in HepG2 hepatoma cells – cell-based, ATP luminescence, dry powder, set 2, cytotoxicity control, dose response (AID 743129). It is filed as functional.
The target of experiment [14] is G-protein coupled receptor 183 (Homo sapiens, UniProt P32249). Briefly: SAR confirmation of small molecule antagonists of the EBI2 receptor via a luminescent beta-arrestin assa. It is filed as functional.
In experiment [15] the target is DNA (cytosine-5)-methyltransferase 1 (Homo sapiens, UniProt P26358). Briefly: inhibition of DNA methylation by DNMT1 – biochemical, fluorescent molecular beacon, confirmation (AID 602386). It is filed as functional.
In experiment [16] the target is Protein disulfide-isomerase (Homo sapiens, UniProt P07237). Briefly: inhibition of PDI-driven insulin aggregation – biochemical, turbidity, absorbance, cherry-picked samples, dose response (AID 602350). It is filed as functional.
The target in another experiment is ELAV-like protein 1 (Homo sapiens, UniProt Q15717). The experiment is described as follows: Identify HuR specific inhibitors. It is filed as functional.
In experiment [17] the target is T3, DNA repair protein RAD52 homolog (Homo sapiens, UniProt P43351).
T3 sequence (P43351 whole entry): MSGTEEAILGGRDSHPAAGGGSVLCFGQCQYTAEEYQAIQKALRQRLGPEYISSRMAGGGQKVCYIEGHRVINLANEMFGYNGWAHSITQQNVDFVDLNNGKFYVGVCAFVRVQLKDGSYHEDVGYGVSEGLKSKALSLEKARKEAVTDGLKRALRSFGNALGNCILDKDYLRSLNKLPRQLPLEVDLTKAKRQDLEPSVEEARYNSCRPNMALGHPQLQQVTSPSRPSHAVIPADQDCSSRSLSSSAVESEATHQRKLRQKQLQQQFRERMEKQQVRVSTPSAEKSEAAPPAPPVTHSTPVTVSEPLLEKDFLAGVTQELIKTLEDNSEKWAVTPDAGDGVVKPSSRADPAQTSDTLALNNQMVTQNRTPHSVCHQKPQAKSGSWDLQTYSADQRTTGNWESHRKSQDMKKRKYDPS
It is filed as functional, biochemical.

A short description of experiment [18]: IC50 of insulin release inhibition, rat insulinoma INS-1E line, 5 mM glucose, cell-based (AID 1117331). It is filed as functional.
Another experiment in a line: cells. Particulars: INS-1E. It is filed as functional, cell-based.

Structures are written as SMILES. Where a name gives a salt, the structure may show the parent alone. Activity calls are given as the source filed them.

T2 sequence (P02675 whole entry, the tested form may be a part): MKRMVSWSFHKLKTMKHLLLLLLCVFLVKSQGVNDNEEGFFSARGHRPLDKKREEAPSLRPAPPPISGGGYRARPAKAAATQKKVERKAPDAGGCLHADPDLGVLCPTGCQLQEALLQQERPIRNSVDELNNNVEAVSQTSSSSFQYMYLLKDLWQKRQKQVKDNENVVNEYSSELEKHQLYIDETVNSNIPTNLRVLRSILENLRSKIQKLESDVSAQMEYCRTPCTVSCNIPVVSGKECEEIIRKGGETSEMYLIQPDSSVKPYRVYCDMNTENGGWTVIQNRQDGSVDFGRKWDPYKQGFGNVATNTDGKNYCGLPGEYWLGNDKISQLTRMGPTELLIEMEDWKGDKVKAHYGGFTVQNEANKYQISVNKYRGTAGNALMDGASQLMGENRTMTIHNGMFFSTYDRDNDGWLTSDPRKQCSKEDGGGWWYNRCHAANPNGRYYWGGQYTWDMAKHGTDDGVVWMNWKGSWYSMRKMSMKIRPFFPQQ
Chain of G-protein coupled receptor 183 (P32249 whole entry): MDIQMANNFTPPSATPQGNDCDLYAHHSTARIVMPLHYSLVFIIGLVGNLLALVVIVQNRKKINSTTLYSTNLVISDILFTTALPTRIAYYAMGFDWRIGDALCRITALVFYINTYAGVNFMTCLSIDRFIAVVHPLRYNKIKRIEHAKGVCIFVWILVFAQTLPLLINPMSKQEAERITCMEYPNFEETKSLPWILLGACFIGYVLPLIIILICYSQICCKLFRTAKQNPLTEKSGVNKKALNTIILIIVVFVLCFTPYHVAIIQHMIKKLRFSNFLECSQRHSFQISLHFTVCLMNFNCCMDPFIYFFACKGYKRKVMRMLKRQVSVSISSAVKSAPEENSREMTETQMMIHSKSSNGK
Chain of ELAV-like protein 1 (Q15717 whole entry): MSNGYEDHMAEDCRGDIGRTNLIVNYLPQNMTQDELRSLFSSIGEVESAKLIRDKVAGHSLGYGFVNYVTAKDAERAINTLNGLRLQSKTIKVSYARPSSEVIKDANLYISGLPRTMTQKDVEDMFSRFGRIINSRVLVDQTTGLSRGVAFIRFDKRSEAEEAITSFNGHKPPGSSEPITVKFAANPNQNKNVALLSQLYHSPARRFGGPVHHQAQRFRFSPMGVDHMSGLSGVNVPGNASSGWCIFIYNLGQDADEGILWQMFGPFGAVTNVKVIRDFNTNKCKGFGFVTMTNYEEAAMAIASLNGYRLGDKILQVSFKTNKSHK
Chain of DNA (cytosine-5)-methyltransferase 1 (P26358 whole entry): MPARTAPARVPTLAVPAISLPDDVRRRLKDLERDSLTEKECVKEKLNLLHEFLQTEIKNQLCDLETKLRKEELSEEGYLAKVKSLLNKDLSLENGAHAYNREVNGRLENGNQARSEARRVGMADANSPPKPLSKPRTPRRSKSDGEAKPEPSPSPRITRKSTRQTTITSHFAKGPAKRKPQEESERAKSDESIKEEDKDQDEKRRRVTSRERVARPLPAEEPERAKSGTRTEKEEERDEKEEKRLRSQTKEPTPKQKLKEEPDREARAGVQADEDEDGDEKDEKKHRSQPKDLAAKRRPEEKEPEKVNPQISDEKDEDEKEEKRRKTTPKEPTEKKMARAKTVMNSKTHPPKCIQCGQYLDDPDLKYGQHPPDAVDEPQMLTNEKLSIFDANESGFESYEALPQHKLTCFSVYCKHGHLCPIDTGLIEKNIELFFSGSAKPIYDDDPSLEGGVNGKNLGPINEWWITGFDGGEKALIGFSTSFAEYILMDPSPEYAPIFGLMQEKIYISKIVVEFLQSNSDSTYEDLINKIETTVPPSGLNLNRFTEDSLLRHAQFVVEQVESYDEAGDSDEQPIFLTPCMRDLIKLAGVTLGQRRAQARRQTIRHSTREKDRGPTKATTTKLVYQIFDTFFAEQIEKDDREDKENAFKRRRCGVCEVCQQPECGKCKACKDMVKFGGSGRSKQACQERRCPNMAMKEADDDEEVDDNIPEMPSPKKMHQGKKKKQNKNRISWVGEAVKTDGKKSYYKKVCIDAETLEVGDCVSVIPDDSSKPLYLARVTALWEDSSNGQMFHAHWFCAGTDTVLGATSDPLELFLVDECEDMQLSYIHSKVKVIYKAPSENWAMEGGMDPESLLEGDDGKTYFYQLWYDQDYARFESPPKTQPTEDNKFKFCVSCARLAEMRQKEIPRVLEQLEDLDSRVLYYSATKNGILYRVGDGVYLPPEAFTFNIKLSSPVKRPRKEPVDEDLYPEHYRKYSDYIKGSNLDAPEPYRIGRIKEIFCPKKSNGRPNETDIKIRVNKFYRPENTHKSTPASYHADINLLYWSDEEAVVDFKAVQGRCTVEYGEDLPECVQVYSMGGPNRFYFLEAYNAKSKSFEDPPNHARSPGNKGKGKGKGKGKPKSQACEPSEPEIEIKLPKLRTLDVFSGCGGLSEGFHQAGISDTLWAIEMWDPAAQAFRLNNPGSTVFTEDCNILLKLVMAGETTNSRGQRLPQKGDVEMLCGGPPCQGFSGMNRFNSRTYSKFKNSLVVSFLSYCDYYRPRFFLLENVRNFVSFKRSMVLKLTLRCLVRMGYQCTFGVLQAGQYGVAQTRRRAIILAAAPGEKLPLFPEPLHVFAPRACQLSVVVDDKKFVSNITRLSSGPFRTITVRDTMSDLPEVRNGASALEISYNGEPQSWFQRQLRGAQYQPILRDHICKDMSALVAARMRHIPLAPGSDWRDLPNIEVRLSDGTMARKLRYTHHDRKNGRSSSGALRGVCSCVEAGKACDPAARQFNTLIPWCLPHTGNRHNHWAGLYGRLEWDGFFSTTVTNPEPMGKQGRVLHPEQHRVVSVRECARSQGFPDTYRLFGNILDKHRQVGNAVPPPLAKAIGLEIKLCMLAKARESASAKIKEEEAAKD
Chain of E3 ubiquitin-protein ligase UHRF1 (Q96T88 whole entry, the tested form may be a part): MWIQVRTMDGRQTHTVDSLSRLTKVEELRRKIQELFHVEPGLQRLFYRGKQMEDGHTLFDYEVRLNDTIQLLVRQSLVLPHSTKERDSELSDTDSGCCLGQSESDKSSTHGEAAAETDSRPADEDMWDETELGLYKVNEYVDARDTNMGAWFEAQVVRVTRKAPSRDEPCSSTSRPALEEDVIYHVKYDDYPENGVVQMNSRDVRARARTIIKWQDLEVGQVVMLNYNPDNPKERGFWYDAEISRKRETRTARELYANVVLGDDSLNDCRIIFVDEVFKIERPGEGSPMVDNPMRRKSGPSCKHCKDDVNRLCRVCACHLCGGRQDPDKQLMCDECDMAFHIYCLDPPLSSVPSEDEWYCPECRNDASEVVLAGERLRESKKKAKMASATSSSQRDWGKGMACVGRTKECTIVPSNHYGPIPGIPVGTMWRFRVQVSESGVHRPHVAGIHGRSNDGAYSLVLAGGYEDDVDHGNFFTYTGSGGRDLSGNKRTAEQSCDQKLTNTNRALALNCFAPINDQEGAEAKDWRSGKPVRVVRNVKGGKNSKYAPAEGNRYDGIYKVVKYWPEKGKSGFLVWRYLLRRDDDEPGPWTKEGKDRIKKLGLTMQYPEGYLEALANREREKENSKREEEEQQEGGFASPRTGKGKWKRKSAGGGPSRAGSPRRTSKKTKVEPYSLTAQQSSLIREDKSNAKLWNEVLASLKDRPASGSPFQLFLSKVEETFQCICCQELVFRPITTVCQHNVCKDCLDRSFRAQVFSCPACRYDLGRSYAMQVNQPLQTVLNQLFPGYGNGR
Chain of Protein disulfide-isomerase (P07237 whole entry): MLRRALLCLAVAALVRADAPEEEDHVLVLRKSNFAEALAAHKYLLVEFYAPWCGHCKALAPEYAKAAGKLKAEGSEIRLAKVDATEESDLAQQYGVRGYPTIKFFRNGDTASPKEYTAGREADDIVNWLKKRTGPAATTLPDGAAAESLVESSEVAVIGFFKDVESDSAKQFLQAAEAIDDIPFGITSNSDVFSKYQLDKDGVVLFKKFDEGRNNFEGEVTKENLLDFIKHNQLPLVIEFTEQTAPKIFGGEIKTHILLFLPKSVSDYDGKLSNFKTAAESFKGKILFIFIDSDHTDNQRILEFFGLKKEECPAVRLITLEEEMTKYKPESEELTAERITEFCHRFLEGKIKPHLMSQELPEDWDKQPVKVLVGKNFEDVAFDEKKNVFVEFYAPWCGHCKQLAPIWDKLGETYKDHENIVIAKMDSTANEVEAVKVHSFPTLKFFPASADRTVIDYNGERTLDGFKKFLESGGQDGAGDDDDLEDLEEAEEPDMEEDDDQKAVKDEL

As a reminder, the AC50 is the concentration giving half of the maximal activity seen. On to `O=C(Nc1ccccc1)N1CCCCN2[C@@H](CO)[C@@H](c3ccc(C#Cc4ccccc4)cc3)[C@@H]2C1`, for which the AC50 in experiment [1] was 19.3 µM (active); in [2] it was 13.7 µM (active); in [3], 7.13 µM (active); in experiment [4], 17.5 µM (active).

For `COc1ccc(C(=O)NC2=C(c3ccccc3)C(=O)c3ccccc3C2=O)cc1`, the values for the half-maximal activity concentration (AC50) in experiment [5] and in experiment [6] were 40.6 µM (active) and 20.9 µM (active), respectively.

Usually IC50 stands for the midpoint of a concentration-inhibition curve. Regarding `Cc1cccc2c(NCCc3ccc(O)c(O)c3)ccnc12`, the IC50 in [7] was 4.7 µM (active).

Consider `CC(=O)Nc1sc2c(c1-c1nc3ccccc3s1)CN(C(C)C)C2`, for which, in [8], the IC50 is > 43.8 µM (inactive).

On to `CCC/C(=N\c1ccc(N)cc1)C1=C(O)C(C(=O)OC)C(C)(C)CC1=O` (stereo not given), for which the results for the IC50 (in experiment [9]; on Fibrinogen beta chain [10]; at Fibrinogen beta chain [11]) were 9.5 µM (active), > 83.3 µM (inactive) and > 83.3 µM (inactive), respectively.

Consider `CCOC(=O)c1c(NC(=O)CNCCN(C)C)sc(C)c1-c1ccccc1`, for which the values for the AC50 in experiment [12] and in experiment [13] were 7.22 µM (active) and > 52 µM (inactive), respectively.

Take `O=C(/C=C/c1ccc(F)cc1)N1CCN(S(=O)(=O)c2cccc(F)c2)CC1`: the IC50 in experiment [14] is 0.0196 µM (active).

Turning to `COC(=O)CC1OCC=C2CN3CCC45C6=CC(=O)C(=O)C([N+](=O)[O-])=C6NC4C1C2CC35` (stereo not given), the values for the IC50 (in [15]; at ELAV-like protein 1) were 6.06 µM (active) and 69.6 µM (inactive), respectively. The AC50 in experiment [16] is 8.03 µM (active).

Turning to `CCC(=O)c1ccc2c(c1)N(CCCN(C)C)c1ccccc1S2` [PROPIONYLPROMAZINE HYDROCHLORIDE], the AC50 in experiment [17] is 31.4 µM (active). The IC50 in experiment [18] was 10.7 µM (inactive); in “cells”, > 33.3 µM (inactive).
